Data reported in paper PMC6155021, “Ancient and modern anticonvulsants act synergistically in a KCNQ potassium channel binding pocket” (Nature Communications, 2018).

Experiments:
[1] = target: KCNQ4 (Homo sapiens, UniProt P56696); test: cell-based; format: cell-based
Excerpt: (§1) cRNA transcripts encoding human KCNA1, KCNQ1, KCNQ2, KCNQ3, KCNQ4, or KCNQ5 were generated by in vitro transcription using the T7 polymerase message machine kit (Thermo Fisher Scientific), after vector linearization, from cDNA sub-cloned into plasmids incorporating X. laevis β-globin 5′ and 3′ UTRs flanking the coding region to enhance translation and cRNA stability. cRNA was quantified by spectrophotometry. Mutant cDNAs were generated by site-directed mutagenesis using a QuikChange kit according to manufacturer’s protocol (Stratagene, San Diego, CA) and corresponding cRNAs prepared as above. Defolliculated stage V and VI X. laevis oocytes (Ecocyte Bioscience, Austin, TX) were injected with Kv channel α subunit cRNAs (10 ng total per oocyte). Oocytes were incubated at 16 °C in Barth’s saline solution (Ecocyte) containing penicillin and streptomycin, with daily washing, for 3–5 days prior to two-electrode voltage-clamp (TEVC) recording.
(§2) Oocytes were placed in a small-volume oocyte bath (Warner) and viewed with a dissection microscope. Chemicals were sourced from Sigma. Bath solution was (in mM): 96 NaCl, 4 KCl, 1 MgCl2, 1 CaCl2, 10 HEPES (pH 7.6). […] MTX (DMSO), sorbic acid (ethanol), and glutaconic acid (molecular grade H2O) were stored at −20 °C as 1 M stocks. Oleamide was stored as a 1 mM stock in ethanol at 4 °C. Palmitic acid was conjugated with bovine serum albumin as a 1 mM stock and stored at −20 °C. All compounds were diluted to working concentrations each experimental day. All compounds were introduced to the recording bath via gravity perfusion at a constant flow of 1 ml/min for 3 min prior to recording. Pipettes were of 1–2 MΩ resistance when filled with 3 M KCl. Currents were recorded in response to pulses between −80 and +40 mV at 20 mV intervals, or a single pulse to +40 mV, from a holding potential of −80 mV, to yield current–voltage relationships, current magnitude, and for quantifying activation rate. TEVC data analysis was performed with Clampfit10.2 (Molecular Devices) and Graphpad Prism software (GraphPad, San Diego, CA, USA); values are stated as mean ± SEM. Normalized tail currents were plotted versus prepulse voltage and fitted with a single Boltzmann function:1 g=A1-A2/1+expV12-Vy+A2, where g is the normalized tail conductance, A1 is the initial value at −∞, A2 is the final value at +∞, V1/2 is the half-maximal voltage of activation, and Vs the slope factor. Activation and deactivation kinetics were fitted with single-exponential functions.

[2] = target: T1, KCNQ2/3 channels (Homo sapiens, UniProt O43525+O43526); test: Relative ion permeability of KCNQ2/3 channels (pseudo-bi-ionic substitution, GRb/GK); format: cell-based; conditions: MTX 30 µM
Procedure: For relative permeability studies, currents were recorded in response to a single pulse to +40 mV for 5 s, followed by pulses between −80 mV and +40 mV at 20 mV intervals, from a holding potential of −80 mV, to yield a current–voltage relationship. According to the Goldman–Hodgkin–Katz (GHK) voltage equation:2 Erev=RT∕FlnPKK^+O+PNaNaO+PClCli/PKK^+i+PNaNai+PClClo, where Erev is the absolute reversal potential and P is the permeability. This permits calculation of the relative permeability of each ion if concentrations on either side of the membrane are known. A modified version of this equation was used here to determine relative permeability of two ions in a system in which only the extracellular ion concentration was known. Thus, relative permeability of Rb^+, Cs^+, and Na^+ compared to K^+ ions was calculated for all channels by plotting the I/V relationships for each channel with each extracellular ion (100 mM) and comparing them to that with 100 mM extracellular K^+ ion to yield a change in reversal potential (ΔErev) for each ion compared to that of K^+. Permeability ratios for each ion compared to K^+ were then calculated as3 ΔErev=Erev,X-Erev,K=RT/zFlnPX/PK
For calculating Rb^+/K^+ permeability (Fig. 3g), tail currents were elicited by a single pulse to +40 mV, followed by a pulse at −80 mV, from a holding potential of −80 mV in 98 mM [K^+] and then 98 mM [Rb^+]. […]

[3] = test system: water-injected control oocytes; test: Two-electrode voltage-clamp of water-injected control oocytes; format: cell-based, Xenopus laevis
Excerpt: Chemicals were sourced from Sigma.

[4] = target: KCNQ2-W236L/KCNQ3-W265L channels (Homo sapiens, UniProt O43525+O43526, W236L/W265L); test: Two-electrode voltage-clamp of W236L-Q2/W265L-Q3 mutant channels in Xenopus oocytes; format: cell-based; conditions: for Non-normalized tail current V0.5 / Normalized tail current V0.5 / Slope: W236L-Q2/W265L-Q3
Excerpt: as §1, §2

[5] = target: KCNA1 (Homo sapiens, UniProt Q09470); test: Two-electrode voltage-clamp of KCNA1 in Xenopus oocytes; format: cell-based; conditions: MTX concentration not given; IVA 500 µM
Excerpt: as §1
as §2, with “TEVC data analysis was performed with Clampfit10.2 (Molecular Devices) and Graphpad Prism software (GraphPad, San Diego, CA, USA); values are stated as mean ± SEM. Normalized tail currents were plotted versus prepulse voltage and fitted with a single Boltzmann function:1 g=A1-A2/1+expV12-Vy+A2, where g is the normalized tail conductance, A1 is the initial value at −∞, A2 is the final value at +∞, V1/2 is the half-maximal voltage of activation, and Vs the slope factor. Activation and deactivation kinetics were fitted with single-exponential functions.” left out

[6] = target: T1, KCNQ2/3 channels; test: Two-electrode voltage-clamp of KCNQ2/3 channels expressed in Xenopus laevis oocytes; format: cell-based
Excerpt: as §1, §2

[7] = KCNQ2/3, 30 µM, Supplementary Table 10
[8] = KCNQ2/3, 30 µM, Supplementary Table 11
[9] = KCNQ2/3, 30 µM, dose series (Supplementary Table 5)

Sequence of KCNA1 (Q09470 whole entry): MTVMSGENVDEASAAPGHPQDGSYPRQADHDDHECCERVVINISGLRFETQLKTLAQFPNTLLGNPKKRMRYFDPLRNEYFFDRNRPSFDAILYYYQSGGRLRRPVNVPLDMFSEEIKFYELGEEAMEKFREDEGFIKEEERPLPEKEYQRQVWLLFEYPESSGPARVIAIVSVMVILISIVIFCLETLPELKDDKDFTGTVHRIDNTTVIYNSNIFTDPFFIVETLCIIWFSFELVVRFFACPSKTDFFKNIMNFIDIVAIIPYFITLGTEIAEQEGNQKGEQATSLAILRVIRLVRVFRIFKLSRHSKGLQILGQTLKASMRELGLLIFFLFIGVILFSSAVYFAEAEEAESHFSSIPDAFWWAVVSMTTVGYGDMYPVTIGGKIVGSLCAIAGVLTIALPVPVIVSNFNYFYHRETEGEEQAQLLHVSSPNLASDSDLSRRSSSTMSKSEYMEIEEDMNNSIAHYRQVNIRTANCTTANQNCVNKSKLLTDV

With `CC(=O)c1c(O)c(C)c(O)c(Cc2c(O)c3c(c(C(=O)/C=C/c4ccccc4)c2O)OC(C)(C)C=C3)c1O` [MTX, mallotoxin] the EC50 [1] was 20.2 µM, the “Non-normalized tail current V0.5” value ([1]; KCNQ4, 0.1 µM) was -17.1 ± 8.1 mV and the “Normalized tail current V0.5” value ([1]; KCNQ4, 0.1 µM) was -17.0 ± 1.6 mV. The Slope ([1]; KCNQ4, 0.1 µM) was 14.1 ± 1.6 mV, the “τ act, -40 mV” value ([1]; KCNQ4, 0.1 µM) was 941 ± 52 ms and the “τ deact, -80 mV” value ([1]; KCNQ4, 0.1 µM) was 924 ± 223 ms. The “Non-normalized tail current V0.5” value ([1]; KCNQ4, 1 µM) was -18.1 ± 9.0 mV, the “Normalized tail current V0.5” value ([1]; KCNQ4, 1 µM) was -18.1 ± 1.9 mV and the Slope ([1]; KCNQ4, 1 µM) was 15.0 ± 1.9 mV. For the same molecule, the “τ act, -40 mV” value ([1]; KCNQ4, 1 µM) was 878 ± 78 ms, the “τ deact, -80 mV” value ([1]; KCNQ4, 1 µM) was 891 ± 234 ms and the “Non-normalized tail current V0.5” value ([1]; KCNQ4, 3 µM) was -20.5 ± 9.8 mV. The “Normalized tail current V0.5” value ([1]; KCNQ4, 3 µM) was -20.1 ± 1.3 mV, the Slope ([1]; KCNQ4, 3 µM) was 15.6 ± 1.9 mV and the “τ act, -40 mV” value ([1]; KCNQ4, 3 µM) was 851 ± 70 ms. For the same molecule, the “τ deact, -80 mV” value ([1]; KCNQ4, 3 µM) was 861 ± 240 ms, the “Non-normalized tail current V0.5” value ([1]; KCNQ4, 10 µM) was -25.3 ± 9.7 mV and the “Normalized tail current V0.5” value ([1]; KCNQ4, 10 µM) was -25.6 ± 1.9 mV. For the same molecule, the Slope ([1]; KCNQ4, 10 µM) was 15.9 ± 1.9 mV, the “τ act, -40 mV” value ([1]; KCNQ4, 10 µM) was 847 ± 94 ms and the “τ deact, -80 mV” value ([1]; KCNQ4, 10 µM) was 906 ± 293 ms. The “Non-normalized tail current V0.5” value ([1]; KCNQ4, 30 µM) was -32.9 ± 9.7 mV, the “Normalized tail current V0.5” value ([1]; KCNQ4, 30 µM) was -32.1 ± 1.9 mV and the Slope ([1]; KCNQ4, 30 µM) was 14.4 ± 1.8 mV. The “shift in midpoint voltage of activation” value ([1]; KCNQ4, 30 µM) was −17 mV, the “τ act, -40 mV” value ([1]; KCNQ4, 30 µM) was 865 ± 108 ms and the “τ deact, -80 mV” value ([1]; KCNQ4, 30 µM) was 905 ± 283 ms. The “Non-normalized tail current V0.5” value ([1]; KCNQ4, 100 µM) was -31.3 ± 9.4 mV, the “Normalized tail current V0.5” value ([1]; KCNQ4, 100 µM) was -31.5 ± 1.3 mV and the Slope ([1]; KCNQ4, 100 µM) was 16.4 ± 3.2 mV. The “τ act, -40 mV” value ([1]; KCNQ4, 100 µM) was 1092 ± 170 ms, the “τ deact, -80 mV” value ([1]; KCNQ4, 100 µM) was 1197 ± 446 ms and the “GRb/GK (ratio of Rb+ conductance to K+ conductance)” value ([2]; KCNQ2/3, baseline 0.75 ± 0.10) was 0.52 ± 0.06. The “relative ion permeability of KCNQ2/3 compared to K+” value ([2]; 100 mM extracellular ion) was “increased relative permeability of KCNQ2/3 to Na^+ and Cs^+, and decreased permeability to Rb^+”, the “effect on endogenous current and EM of water-injected control oocytes” value [3] was “no effect” and the EC50 [4] was 14.9 ± 0.1 µM. For the same molecule, the “Non-normalized tail current V0.5” value ([4]; 1 µM) was -62.5 ± 3.4 mV, the “Normalized tail current V0.5” value ([4]; 1 µM) was -62.8 ± 0.4 mV and the Slope ([4]; 1 µM) was 5.9 ± 0.5 mV. The “Non-normalized tail current V0.5” value ([4]; 3 µM) was -63.6 ± 3.7 mV, the “Normalized tail current V0.5” value ([4]; 3 µM) was -64.1 ± 0.9 mV and the Slope ([4]; 3 µM) was 6.3 ± 0.9 mV. The “Non-normalized tail current V0.5” value ([4]; 10 µM) was -66.3 ± 3.9 mV, the “Normalized tail current V0.5” value ([4]; 10 µM) was -67.3 ± 0.9 mV and the Slope ([4]; 10 µM) was 6.4 ± 0.6 mV. The “Non-normalized tail current V0.5” value ([4]; 30 µM) was -70.6 ± 3.7 mV, the “Normalized tail current V0.5” value ([4]; 30 µM) was -71.9 ± 0.9 mV and the Slope ([4]; 30 µM) was 6.3 ± 0.5 mV. For the same molecule, the “Non-normalized tail current V0.5” value ([4]; 100 µM) was -74.4 ± 3.9 mV, the “Normalized tail current V0.5” value ([4]; 100 µM) was -77.3 ± 1.4 mV and the Slope ([4]; 100 µM) was 5.9 ± 1.8 mV. The “effect on KCNA1 currents” value [5] was “no effect”, the “resting membrane potential (EM) of unclamped oocytes expressing KCNQ2/3” value [6] was “dose-dependently hyperpolarizes” and the “effects on KCNQ2/3” value ([6]; 1 µM alone) was “negligible effects”. For the same molecule, the “effect on voltage dependence of KCNQ2/3 activation (initial screen)” value ([6]; 30 µM, tail currents at −30 mV) was “negative-shifted”, the “KCNQ2/3 current increase at −60 mV” value ([6]; 100 µM) was “seven-fold” and the “effect on KCNQ2/3 at +40 mV” value ([6]; +40 mV) was “little effect”. For the same molecule, the EC50 ([6]; EC50, KCNQ2/3, current at −60 mV, calculated from dose responses) was 11.5 ± 0.2 µM, the “Non-normalized tail current V0.5” value ([6]; KCNQ2/3, 0.1 µM) was -47.3 ± 2.4 mV and the “Normalized tail current V0.5” value ([6]; KCNQ2/3, 0.1 µM) was -47.8 ± 0.5 mV. For the same molecule, the Slope ([6]; KCNQ2/3, 0.1 µM) was 7.5 ± 0.4 mV, the “τ act, -40 mV” value ([6]; KCNQ2/3, 0.1 µM) was 684 ± 55 ms and the “τ deact, -80 mV” value ([6]; KCNQ2/3, 0.1 µM) was 236 ± 12 ms. The “Non-normalized tail current V0.5” value ([6]; KCNQ2/3, 1 µM) was -44.4 ± 4.9 mV, the “Normalized tail current V0.5” value ([6]; KCNQ2/3, 1 µM) was -47.0 ± 0.9 mV and the Slope ([6]; KCNQ2/3, 1 µM) was 7.4 ± 0.6 mV. The “τ act, -40 mV” value ([6]; KCNQ2/3, 1 µM) was 611 ± 46 ms, the “τ deact, -80 mV” value ([6]; KCNQ2/3, 1 µM) was 227 ± 20 ms and the “Non-normalized tail current V0.5” value ([6]; KCNQ2/3, 3 µM) was -47.3 ± 5.0 mV. The “Normalized tail current V0.5” value ([6]; KCNQ2/3, 3 µM) was -50.7 ± 1.0 mV, the Slope ([6]; KCNQ2/3, 3 µM) was 7.9 ± 0.8 mV and the “τ act, -40 mV” value ([6]; KCNQ2/3, 3 µM) was 530 ± 37 ms. The “τ deact, -80 mV” value ([6]; KCNQ2/3, 3 µM) was 259 ± 12 ms, the “Non-normalized tail current V0.5” value ([6]; KCNQ2/3, 10 µM) was -51.9 ± 4.8 mV and the “Normalized tail current V0.5” value ([6]; KCNQ2/3, 10 µM) was -56.2 ± 1.3 mV. The Slope ([6]; KCNQ2/3, 10 µM) was 6.8 ± 1.3 mV, the “τ act, -40 mV” value ([6]; KCNQ2/3, 10 µM) was 462 ± 34 ms and the “τ deact, -80 mV” value ([6]; KCNQ2/3, 10 µM) was 261 ± 7 ms. For the same molecule, the “Non-normalized tail current V0.5” value ([6]; KCNQ2/3, 30 µM) was -54.9 ± 4.9 mV, the “Normalized tail current V0.5” value ([6]; KCNQ2/3, 30 µM) was -60.0 ± 1.8 mV and the Slope ([6]; KCNQ2/3, 30 µM) was 8.0 ± 1.8 mV. The “τ act, -20 mV” value [6, 7] was 205 ± 6 ms, the “τ act, -40 mV” value [6, 7] was 397 ± 26 ms and the “τ act, -60 mV” value [6, 7] was 835 ± 51 ms. For the same molecule, the “τ deact, -80 mV” value [6, 8] was 143 ± 39 ms, the “τ deact, -90 mV” value [6, 8] was 105 ± 4.2 ms and the “τ deact, -100 mV” value [6, 8] was 77 ± 6.2 ms. For the same molecule, the “τ deact, -110 mV” value [6, 8] was 53 ± 3.5 ms, the “τ deact, -120 mV” value [6, 8] was 36 ± 1.2 ms and the “τ act, -40 mV” value [6, 9] was 403 ± 33 ms. For the same molecule, the “τ deact, -80 mV” value [6, 9] was 259 ± 18 ms, the “Non-normalized tail current V0.5” value ([6]; KCNQ2/3, 100 µM) was -56.6 ± 3.8 mV and the “Normalized tail current V0.5” value ([6]; KCNQ2/3, 100 µM) was -57.1 ± 0.6 mV. For the same molecule, the Slope ([6]; KCNQ2/3, 100 µM) was 7.2 ± 0.5 mV, the “τ act, -40 mV” value ([6]; KCNQ2/3, 100 µM) was 403 ± 34 ms and the “τ deact, -80 mV” value ([6]; KCNQ2/3, 100 µM) was 415 ± 87 ms. The “shift in midpoint voltage dependence (V0.5) of activation” value ([6]; KCNQ2/3, MTX 30 µM) was −17 mV, the EC50 ([6]; V0.5 EC50, KCNQ2/3, calculated from shift in V0.5) was 4 ± 0.2 µM and the “KCNQ2/3 current increase at −60 mV” value ([6]; either component alone (MTX 30 µM; IVA 500 µM)) was “~ fivefold”. The “time to plateau of KCNQ2/3 activation after wash-in” value ([6]; −60 mV current) was 5 min.
